Reference: patent US20260364182A1, “PROTEOLYSIS-TARGETING CHIMERAS AGAINST THE PAPAIN-LIKE PROTEASE OF SARS-COV-2” (Tocris Cookson Limited, priority 2022, published 2026)

Legend:
SARS-CoV-2 = assay: Antiviral assay in infected Vero E6 cells (ATP quantification, Cell Titer Glo); conditions: Vero E6 cells, MOI 0.05, 72 h; for inhibition at 10 µM / inhibition at 50 µM: Severe acute respiratory syndrome coronavirus 2, Vero C1008, 72 h; for inhibition at 10 µM: read-out: Antiviral Activity, 10 uM (cell viability assay), 10 uM; for inhibition at 50 µM: read-out: Antiviral Activity, 50 uM (cell viability assay), 50 uM; for Antiviral Activity, 10 uM (cell viability assay): 4320 min
Method: Vero E6 cells (2×10^4/well) were seeded in 96 well plates one day before the experiment. Pre-treatment, the medium was removed and compounds were added at concentrations varying from 0.1-100 μM. After 24 h incubation, the medium was removed and cells were infected with MOI 0.05 SARS-CoV-2 SARS-CoV2/ZG/297-20. After 1 h infection, the viruses were removed and the same concentration of compounds were added back into the cells. After 72 h incubation at 37 °C, EC50 measurements were made using ATP quantification (Cell Titer Glo).

SARS-CoV-2 PLpro = target: T1, SARS-CoV-2 PLpro (Severe acute respiratory syndrome coronavirus 2, UniProt P0DTD1); assay: IC50 inhibitory assay, fluorogenic substrate cleavage by PLpro; assay type: biochemical; conditions: for IC50: SARS-CoV-2 PLpro 0.1 μM, substrate 10 μM, pH 8.1, 37 °C, 10 min preincubation; for inhibitory potency of PROTAC and parent ligand in binary IC50 experiment (in words): in vitro inhibitory assay, 20 mM HEPES, pH 8.1, 1% DMSO, PROTAC compared with parent ligand
T1 construct: The papain-like protease domain (PLpro) of SARS-CoV-2 (SCoV2)
Method: The inhibitory activities of compounds against SARS-CoV-2 PLpro were determined in a reaction buffer containing 20 mM HEPES, 40 mM NaCl, 5% glycerol, 2 mM DTT (freshly added before the measurements), pH 8.1, at 37 °C. A fluorescent substrate of SARS-CoV-2 PLpro (Z-Arg-leu-Arg-Gly-Gly-[…]AMC; Biosyntan, Berlin) was used, and the fluorescence signal of the cleaved substrate was monitored using a Tecan Spark® fluorescence spectrophotometer at an […] wavelength of 460/360 nm. SARS-CoV-2 PLpro (10 μL per well) was pipetted into a 96-well plate together with reaction buffer reaction buffer (50 μL per well, final enzyme concentration: 0.1 μM). Compounds (10 μL per well) were added at varying concentrations, and plates incubated at 37 °C for 10 mins. Finally, the reaction was initiated by adding 30 μL of the substrate (final concentration: 10 μM) dissolved in the reaction buffer.
FIG. 1: PROTAC and parent ligand for SARS-CoV-2 PLpro in a binary IC50 experiment. C10778A PROTAC (top left), comprising a SARS-CoV-2 PLpro targeting ligand C10778B (bottom left) connected to thalidomide via a C3 alkyl linker. IC50 values have been determined in an in vitro inhibitory binding assay whereby the fluorescence signal resulting from cleavage of a fluorogenic substrate by PLpro is measured. Inhibition of PLpro is associated with reduced cleavage of the fluorogenic substrate. […] Assay conditions: experiments were performed in 20 mM HEPES buffer containing 40 mM NaCl 5% glycerol, 2 mM DTT at pH 8.1. A fluorogenic substrate for PLpro (Z-Arg-leu-Arg-Gly-Gly-AMC) was used to determine the inhibition rate of compounds. Final DMSO concentration in each reaction was 1%. Measurements were performed in triplicate.

SMILES | inhibition at 10 µM (SARS-CoV-2) [%] | inhibition at 50 µM (SARS-CoV-2) [%] | IC50 (SARS-CoV-2 PLpro) [µM] | inhibitory potency of PROTAC and parent ligand in binary IC50 experiment (in words) (SARS-CoV-2 PLpro) | Antiviral Activity, 10 uM (cell viability assay) (SARS-CoV-2) | Antiviral Activity, 50 uM (cell viability assay) (SARS-CoV-2; 50 uM)
C[C@H](c1cccc2ccccc12)N1CCC(C(=O)NCc2cc(F)cc(NC(=O)N3CCN(CCOCCOCCC(=O)N4CCN(c5ccc(N6CCC(=O)NC6=O)cc5)CC4)CC3)c2)CC1 [TS569] | < 0 | < 25 | < 10 |  |  | 
C[C@H](c1cccc2ccccc12)N1CCC(C(=O)NCc2cc(F)cc(NC(=O)N3CCN(CCCCCCOc4cccc5c4C(=O)N(C4CCC(=O)NC4=O)C5=O)CC3)c2)CC1 (stereo partly drawn) [TS444] | < 25 | < 25 | < 10 |  |  | 
Cc1ccc(NC(=O)CCCCCNc2cccc3c2CN(C2CCC(=O)NC2=O)C3=O)cc1C(=O)N[C@H](C)c1cccc2ccccc12 (stereo partly drawn) [TS121] | < 0 | < 0 | 10 to 25 |  |  | 
C[C@H](c1cccc2ccccc12)N1CCC(C(=O)NCc2cc(F)cc(NC(=O)N3CCN(CCOc4ccc5c(c4)C(=O)N(C4CCC(=O)NC4=O)C5=O)CC3)c2)CC1 (stereo partly drawn) [TS499] | < 25 | < 25 | < 1 |  |  | 
C[C@H](c1cccc2ccccc12)N1CCC(C(=O)NCc2cc(F)cc(NC(=O)N3CCN(CCOCCOCCOc4cccc5c4C(=O)N(C4CCC(=O)NC4=O)C5=O)CC3)c2)CC1 (stereo partly drawn) [TS420] | < 25 | < 0 | < 10 |  |  | 
C[C@H](c1cccc2ccccc12)N1CCC(C(=O)NCc2cc(F)cc(NC(=O)N3CCN(CCOCCOCCC(=O)N4CCN(c5ccc(C6CCC(=O)NC6=O)cc5)CC4)CC3)c2)CC1 (stereo partly drawn) [TS568] | < 25 | < 75 | < 10 |  |  | 
C[C@H](c1cccc2ccccc12)N1CCC(C(=O)NCc2cc(F)cc(NC(=O)N3CCN(CC4CCN(c5ccc6c(c5)C(=O)N(C5CCC(=O)NC5=O)C6=O)CC4)CC3)c2)CC1 (stereo partly drawn) [TS535] | < 25 | < 75 | 10 to 25 |  |  | 
Cc1ccc(NC(=O)CCOCCOCCNc2cccc3c2C(=O)N(C2CCC(=O)NC2=O)C3=O)cc1C(=O)N[C@H](C)c1cccc2ccccc12 (stereo partly drawn) [TS139] | < 0 | < 25 | < 10 |  |  | 
Cc1ccc(NC(=O)CCCCC(=O)N[C@H](C(=O)N2C[C@H](O)C[C@H]2C(=O)NCc2ccc(-c3scnc3C)cc2)C(C)(C)C)cc1C(=O)N[C@H](C)c1cccc2ccccc12 [TS309] | < 0 | < 0 | 10 to 25 |  |  | 
C[C@H](c1cccc2ccccc12)N1CCC(C(=O)NCc2cc(F)cc(NC(=O)N3CCN(CCCCC(=O)N4CCN(c5ccc(C6CCC(=O)NC6=O)cc5)CC4)CC3)c2)CC1 (stereo partly drawn) [TS551] | < 25 | < 50 | < 10 |  |  | 
C[C@H](c1cccc2ccccc12)N1CCC(C(=O)NCc2cc(F)cc(NC(=O)N3CCN(CCOCCOCCOCCOc4cccc5c4C(=O)N(C4CCC(=O)NC4=O)C5=O)CC3)c2)CC1 (stereo partly drawn) [TS423] | < 25 | < 0 | < 10 |  |  | 
C[C@H](c1cccc2ccccc12)N1CCC(C(=O)NCc2cc(F)cc(NC(=O)N3CCN(CCOCCOc4cccc5c4C(=O)N(C4CCC(=O)NC4=O)C5=O)CC3)c2)CC1 (stereo partly drawn) [TS424] | < 0 | < 0 | < 10 |  |  | 
Cc1ccc(NC(=O)CCCCCOc2cc(-c3scnc3C)ccc2CNC(=O)[C@@H]2C[C@@H](O)CN2C(=O)[C@@H](NC(=O)C2(F)CC2)C(C)(C)C)cc1C(=O)N[C@H](C)c1cccc2ccccc12 (stereo in doubt) [TS291] | < 0 | < 25 | > 25 |  |  | 
C[C@H](c1cccc2ccccc12)N1CCC(C(=O)NCc2cc(F)cc(NC(=O)N3CCN(CCCCNC(=O)COc4ccc(N5CCC(=O)NC5=O)cc4)CC3)c2)CC1 [TS557] | < 0 | < 0 | < 10 |  |  | 
Cc1ccc(NC(=O)CCOCCNc2cccc3c2C(=O)N(C2CCC(=O)NC2=O)C3=O)cc1C(=O)N[C@H](C)c1cccc2ccccc12 (stereo partly drawn) [TS144] | < 0 | < 0 | 10 to 25 |  |  | 
Cc1ccc(NC(=O)CCCCNc2cccc3c2CN(C2CCC(=O)NC2=O)C3=O)cc1C(=O)N[C@H](C)c1cccc2ccccc12 (stereo partly drawn) [TS124] | < 0 | < 25 | < 10 |  |  | 
Cc1ccc(NC2CCNCC2)cc1C(=O)N[C@H](C)c1cccc(-c2ccc(CNC(=O)CCCNc3cccc4c3C(=O)N(C3CCC(=O)NC3=O)C4=O)s2)c1 (stereo partly drawn) [Compound C10778I] | < 0 | < 0 | < 1 |  |  | 
Cc1ccc(NC(=O)CCCCOc2cc(-c3scnc3C)ccc2CNC(=O)[C@@H]2C[C@@H](O)CN2C(=O)[C@@H](NC(=O)C2(F)CC2)C(C)(C)C)cc1C(=O)N[C@H](C)c1cccc2ccccc12 [TS290] | < 0 | < 25 | > 25 |  |  | 
Cc1ccc(NC2CCNCC2)cc1C(=O)N[C@H](C)c1cccc(-c2ccc(CNC(=O)CCCOc3cccc4c3C(=O)N(C3CCC(=O)NC3=O)C4=O)s2)c1 (stereo partly drawn) [Compound C10778A, N-((1R)-1-(3-(5-((4-((2-(2,6-Dioxopiperidin-3-yl)-1,3-dioxoisoindolin-4-yl)oxy)butanamido)methyl)thiophen-2-yl)phenyl)ethyl)-2-methyl-5-(piperidin-4-ylamino)benzamide] |  |  | < 1 | retains nM activity for PLpro, similar to the parent compound |  | 
Cc1ccc(NC2CCNCC2)cc1C(=O)N[C@H](C)c1cccc(-c2ccc(CNC(=O)CCCCCNc3ccc4c(c3)C(=O)N(C3CCC(=O)NC3=O)C4=O)s2)c1 (stereo partly drawn) [Compound C10778D] | < 0 | < 0 | < 1 |  |  | 
C[C@H](c1cccc2ccccc12)N1CCC(C(=O)NCc2cc(F)cc(NC(=O)N3CCN(CCCCCCOc4ccc5c(c4)C(=O)N(C4CCC(=O)NC4=O)C5=O)CC3)c2)CC1 (stereo partly drawn) [TS534] | < 25 | > 75 | < 10 |  |  | 
Cc1ccc(C(=O)NCCCCN2CCN(C(=O)Nc3cc(F)cc(CNC(=O)C4CCN([C@H](C)c5cccc6ccccc56)CC4)c3)CC2)cc1N1CCC(=O)NC1=O [TS567] | < 0 | < 0 | < 10 |  |  | 
Cc1ccc(NC(=O)CCCNc2cccc3c2C(=O)N(C2CCC(=O)NC2=O)C3=O)cc1C(=O)N[C@H](C)c1cccc2ccccc12 (stereo partly drawn) [TS145] |  |  | < 10 |  |  | 
Cc1ccc(NC(=O)CCOCCNc2ccc3c4c(cccc24)C(=O)N(C2CCC(=O)NC2=O)C3=O)cc1C(=O)N[C@H](C)c1cccc2ccccc12 (stereo partly drawn) [Compound C10778H] |  |  | > 25 |  | D (<25% = D) | E (<0% = E)
Cc1ccc(NC(=O)CCOCCOCCOCCNc2ccc3c4c(cccc24)C(=O)N(C2CCC(=O)NC2=O)C3=O)cc1C(=O)N[C@H](C)c1cccc2ccccc12 (stereo partly drawn) [TS182] | < 0 | < 25 | < 10 |  |  | 
Cc1ccc(NC2CCNCC2)cc1C(=O)N[C@H](C)c1cccc(-c2ccc(CNC(=O)CCCNc3ccc4c(c3)C(=O)N(C3CCC(=O)NC3=O)C4=O)s2)c1 (stereo partly drawn) [Compound C10778E] | < 0 | < 0 | < 1 |  |  | 
Cc1ccc(NC(=O)CCOCCNc2ccc3c4c(cccc24)C(=O)N(C2CCC(=O)NC2=O)C3=O)cc1C(=O)N[C@H](C)c1cccc2ccccc12 (stereo in doubt) [TS181] |  | < 0 |  |  | E (<0% = E) | 
Cc1ccc(NC2CCNCC2)cc1C(=O)N[C@H](C)c1cccc(-c2ccc(CNC(=O)CCCCCNC(=O)COc3ccc(C4CCC(=O)NC4=O)cc3)s2)c1 (stereo partly drawn) [Compound C10778G] | < 25 | < 25 | < 1 |  |  | 
C[C@H](c1cccc2ccccc12)N1CCC(C(=O)NCc2cc(F)cc(NC(=O)N3CCN(CCCCC(=O)N4CCN(c5ccc(N6CCC(=O)NC6=O)cc5)CC4)CC3)c2)CC1 [TS553] | < 25 | < 25 | < 10 |  |  | 
CC(=O)NCc1ccc(-c2cccc([C@@H](C)NC(=O)c3cc(NC4CCNCC4)ccc3C)c2)s1 [Compound C10778B, (R)—N-(1-(3-(5-(Acetamidomethyl)thiophen-2-yl)phenyl)ethyl)-2-methyl-5-(piperidin-4-ylamino)benzamide, reference compound] |  |  |  | nM activity for PLpro |  | 
